Test results reported in the NIST ThermoML archive (doi:10.1021/acs.jced.9b00313).

Assays:
[1] = xn = mol fraction of the nth substance listed; conditions: 86.5 kPa, Liquid; for viscosity: Capillary tube (Ostwald / Ubbelohde) method; for speed of sound: Frequency=3 MHz, Single path-length method; for mass density: Vibrating tube method
[2] = refractive index (Na D-line) (dimensionless); xn = mol fraction of the nth substance listed; conditions: 86.5 kPa, Liquid, Standard Abbe refractometry

C[N+](C)(C)CCO.[Cl-] [choline chloride] + NCCO
Conditions	mass density, [1] [kg/m3]	refractive index, [2]	speed of sound, [1] [m/s]	viscosity, [1] [mPa·s]
288.15 K, x1 = 0.125	1090.06	1.4905	1989.5	50.12
288.15 K, x1 = 0.167	1091.28	1.4934	2006.1	59.66
293.15 K, x1 = 0.125	1086.89	1.4884	1977.8	42.39
293.15 K, x1 = 0.167	1088.11	1.4913	1994.5	52.01
298.15 K, x1 = 0.125	1083.96	1.4862	1965.3	35.76
298.15 K, x1 = 0.167	1085.18	1.4891	1982	37.69
303.15 K, x1 = 0.125	1081	1.4844	1953	30.23
303.15 K, x1 = 0.167	1082.22	1.4873	1970.7	38.98

OCCNCCO [diethanolamine] + C[N+](C)(C)CCO.[Cl-]
Conditions	mass density, [1] [kg/m3]	refractive index, [2]	speed of sound, [1] [m/s]	viscosity, [1] [mPa·s]
288.15 K, x2 = 0.125	1102.46	1.4892	1826.4	506.3
288.15 K, x2 = 0.167	1104.58	1.492	1839	528.22
293.15 K, x2 = 0.125	1099.49	1.4871	1812.5	498.57
293.15 K, x2 = 0.167	1101.42	1.4902	1825.7	520.58
298.15 K, x2 = 0.125	1096.43	1.485	1798.8	491.94
298.15 K, x2 = 0.167	1098.48	1.4877	1811.7	513.69
303.15 K, x2 = 0.125	1092.86	1.4831	1784	486.41
303.15 K, x2 = 0.167	1095.52	1.4861	1799.1	507.54

C[N+](C)(C)CCO.[Cl-] [choline chloride] + OCCOCCO
Conditions	mass density, [1] [kg/m3]	refractive index, [2]	speed of sound, [1] [m/s]	viscosity, [1] [mPa·s]
288.15 K, x1 = 0.125	1115.24	1.4797	1752.1	110.12
288.15 K, x1 = 0.167	1117.43	1.4857	1764.7	125.8
293.15 K, x1 = 0.125	1113.38	1.4776	1740.1	102.39
293.15 K, x1 = 0.167	1114.61	1.4836	1752.3	118.16
298.15 K, x1 = 0.125	1110.59	1.4754	1728.4	95.76
298.15 K, x1 = 0.167	1111.75	1.4814	1740.3	111.27
303.15 K, x1 = 0.125	1107.68	1.4735	1716.3	90.23
303.15 K, x1 = 0.167	1108.86	1.4795	1728.4	105.11

OCCN(CCO)CCO [triethanolamine] + C[N+](C)(C)CCO.[Cl-]
Conditions	mass density, [1] [kg/m3]	refractive index, [2]	speed of sound, [1] [m/s]	viscosity, [1] [mPa·s]
288.15 K, x2 = 0.125	1124.87	1.49	1715.5	522.91
288.15 K, x2 = 0.167	1125.76	1.4926	1734.7	552.67
293.15 K, x2 = 0.125	1122.22	1.4877	1703.1	515.18
293.15 K, x2 = 0.167	1122.89	1.4905	1723.7	545.03
298.15 K, x2 = 0.125	1119.73	1.4856	1691.2	508.55
298.15 K, x2 = 0.167	1120.12	1.4883	1712.2	538.14
303.15 K, x2 = 0.125	1116.88	1.4835	1678.5	503.02
303.15 K, x2 = 0.167	1117.58	1.4865	1700.5	531.99

OCCOCCOCCO [triethylene glycol] + C[N+](C)(C)CCO.[Cl-]
Conditions	mass density, [1] [kg/m3]	refractive index, [2]	speed of sound, [1] [m/s]	viscosity, [1] [mPa·s]
288.15 K, x2 = 0.125	1118.76	1.492	1641.2	144.03
288.15 K, x2 = 0.167	1120.95	1.498	1660.5	160.22
293.15 K, x2 = 0.125	1116.27	1.4912	1629.7	136.3
293.15 K, x2 = 0.167	1118.12	1.4971	1648.4	152.58
298.15 K, x2 = 0.125	1113.74	1.4887	1617.8	129.67
298.15 K, x2 = 0.167	1115.27	1.4947	1636.8	145.69
303.15 K, x2 = 0.125	1111.2	1.4872	1605.8	124.14
303.15 K, x2 = 0.167	1112.38	1.4928	1624.9	139.54

C[N+](C)(C)CCO.[Cl-] [choline chloride] + OCCO
Conditions	mass density, [1] [kg/m3]	refractive index, [2]	speed of sound, [1] [m/s]	viscosity, [1] [mPa·s]
288.15 K, x1 = 0.125	1113.73	1.467	1919.5	32.07
288.15 K, x1 = 0.167	1115.91	1.4732	1931.8	43.39
293.15 K, x1 = 0.125	1111.87	1.4649	1907.5	24.34
293.15 K, x1 = 0.167	1113.09	1.4711	1920.1	35.75
298.15 K, x1 = 0.125	1109.07	1.4628	1895.2	17.71
298.15 K, x1 = 0.167	1110.23	1.4687	1908.6	28.86
303.15 K, x1 = 0.125	1106.16	1.461	1883.5	12.19
303.15 K, x1 = 0.167	1107.34	1.4668	1897.1	22.72
